This note sets out measurements from PMC6225253, “Chemical Constituents and Antidepressant-Like Effects in Ovariectomized Mice of the Ethanol Extract of Alternanthera philoxeroides” (Molecules : A Journal of Synthetic Chemistry and Natural …, 2018).

What all share (format): in vivo
In assay [1] the test system is ovariectomized (OVX) mice. Put plainly: Forced swimming test (FST) in ovariectomized mice. As to conditions: oral once daily 8 weeks, E2 1 μg/kg/day, extract 250 and 500 mg/kg/day, vs vehicle-treated OVX group. As for the experimental part:
(§1) The depressive-like symptoms of the OVX mice were evaluated using FST and TST (Figure 2A,B).
(§2) After a 3-day recovery period, the animals were divided into five groups: (1) sham, (2) ovariectomy (OVX), (3) ovariectomy + 1 μg/kg 17β-estradiol, (OVX + E2), (4) ovariectomy + 250 mg/kg of A. philoxeroides extract (OVX + AP250), and (5) ovariectomy + 500 mg/kg of A. philoxeroides extract (OVX + AP500). The sham and OVX control groups were orally administered distilled water 0.2 mL per mouse once daily for 8 weeks. 17β-Estradiol and A. philoxeroides extract were suspended in distilled water and orally administered 0.2 mL per mouse once daily for 8 weeks. To assess the effects of 17β-estradiol and A. philoxeroides extract in OVX mice, the drugs were administered 1 h before the behavioral tests. At the end of behavioral studies, the mice were anesthetized with pentobarbital sodium (Nembutal®) 60 mg/kg (i.p.). Thereafter, blood sera (1 mL) were collected by cardiac puncture and centrifuged (3000 rpm; 4 °C) for 15 min [53]. 17β-Estradiol and corticosterone levels were evaluated in the serum. […] Hippocampus and frontal cortex were collected for semi-quantitative reverse transcription-polymerase chain reaction (RT-PCR) assay. […]
The procedure was adapted from Vogel et al.. […] During a 6 min period, the total immobility time was recorded for the last 4 min.

The test system of assay [2] is ovariectomized (OVX) mice. Put plainly: Tail suspension test (TST) in ovariectomized mice. As to conditions: oral once daily 8 weeks, E2 1 μg/kg/day, extract 250 and 500 mg/kg/day, vs vehicle-treated OVX group. As for the experimental part:
as §1, §2
The tail suspension test was used to assess the antidepressant effects of A. philoxeroides extract. […] The animal behavior was video-recorded for 6 min. […]

For assay [3], the system named is ovariectomized (OVX) mice. Nature of the assay: Serum 17β-estradiol level of OVX mice (electrochemiluminescence immunoassay). The conditions noted are these: OVX mice + E2 1 μg/kg/day, oral, 8 weeks; mean ± SEM, n = 3–4. As for the experimental part:
(§3) The levels of serum 17β-estradiol were evaluated (after decapitation) by electrochemiluminescence immunoassay. […] The weight and volume of the uterus were determined as an index of estrogen receptors activation.
as §2

Assay [4] has as its system uterus of OVX mice. Put plainly: Uterine weight and volume of OVX mice. As for the experimental part: as §3
After a 3-day recovery period, the animals were divided into five groups: (1) sham, (2) ovariectomy (OVX), (3) ovariectomy + 1 μg/kg 17β-estradiol, (OVX + E2), (4) ovariectomy + 250 mg/kg of A. philoxeroides extract (OVX + AP250), and (5) ovariectomy + 500 mg/kg of A. philoxeroides extract (OVX + AP500). The sham and OVX control groups were orally administered distilled water 0.2 mL per mouse once daily for 8 weeks. 17β-Estradiol and A. philoxeroides extract were suspended in distilled water and orally administered 0.2 mL per mouse once daily for 8 weeks. To assess the effects of 17β-estradiol and A. philoxeroides extract in OVX mice, the drugs were administered 1 h before the behavioral tests. At the end of behavioral studies, the mice were anesthetized with pentobarbital sodium (Nembutal®) 60 mg/kg (i.p.). Thereafter, blood sera (1 mL) were collected by cardiac puncture and centrifuged (3000 rpm; 4 °C) for 15 min [53]. 17β-Estradiol and corticosterone levels were evaluated in the serum. Uteri were removed, trimmed of connective tissue and fat for measuring and weighing. Hippocampus and frontal cortex were collected for semi-quantitative reverse transcription-polymerase chain reaction (RT-PCR) assay. Both serum and all tissues were collected rapidly and kept at −80 °C for all experiments.

In assay [5] the test system is HPA-axis (serum corticosterone). Nature of the assay: Serum corticosterone level of OVX mice (ELISA). As to conditions: extract 250 and 500 mg/kg/day, E2 1 µg/kg/day, p < 0.001 vs vehicle-treated OVX group. Here is the method:
The serum corticosterone was evaluated to clarify the feedback mechanism in the HPA-axis on the estrogen deprivation in the OVX mice. […] Serum corticosterone level was determined by corticosterone (CORT) ELISA kit (Assaypro LLC. St. Charles, MO, USA) and corticosterone was used as a standard, according to the previously described procedure. The serum of the sample 25 µL was added in 96-well microplates of ELISA kit and immediately added 25 µL of biotinylated corticosterone to each well. The 96-well microplates were gently mixed and incubated for 2 h at room temperature and then washed with 200 µL of wash buffer for five times and added 50 µL of streptavidin-peroxidase conjugate into each well before incubation for 30 minutes. Each well was washed with 200 µL of wash buffer for five times again and then added 50 µL of chromogen substrate and incubated for 20 minutes. The reaction was stopped by adding 50 µL of stop solution. The absorbance was immediately measured at 450 nm.

The subject of assay [6] is CREB and BDNF mRNAs. Put plainly: CREB and BDNF mRNA expression in hippocampus and frontal cortex (semi-quantitative RT-PCR). The conditions noted are these: hippocampus and frontal cortex of OVX mice; extract 250 and 500 mg/kg/day, E2 1 μg/kg/day. The text has this: After completing the behavioral analysis, mice were decapitated under anesthesia. Mouse cyclic AMP response element binding protein (CREB), brain-derived neurotrophic factor (BDNF), and β-actin mRNAs expression in hippocampus and frontal cortex were semi-quantified by RT-PCR as described previously. Total RNA was extracted from the tissues with TRIzol® (Thermo Fisher Scientific Inc., CA, USA) according to the manufacturer’s instructions. First-strand cDNA was synthesized with oligo (dT) primers and SuperScript III reverse transcriptase (Thermo Fischer Scientific Inc., California, USA). PCR amplification was carried out using gene-specific PCR primer sets as follows: β-actin: 5′-AACGGTCTCACGTCAGTGTA-3′ (sense) and 5′-GTGACAGCATTGCTTCTGTG-3′ (antisense); BDNF: 5′-GACAAGGCAACTTGGCCTAC-3′ (sense) and 5′-CCTGTCACACACGCTCAGCTC-3′ (antisense); and CREB: 5′-GAGGCAGCTTGAACAACAAC-3′ (sense) and 5′-TACCCAGGGAGGAGCAATAC-3′ (antisense). […] The amplified products were visualized, photographed under ultraviolet and semi-quantified by GeneSnap software (GSL Biotech, Chicago, IL, USA) and ImageJ software (National Institutes of Health, Bethesda, MD, USA). The relative mRNA expression (BDNF/β-actin and CREB/β-actin) in each treatment were calculated by comparing with the sham group.

The mark [7] stands for this setting: OVX mice + E2 1 μg/kg/day, oral, 8 weeks, mean ± SEM.

Each structure is given as a SMILES string.

Turning to `C[C@]12CC[C@@H]3c4ccc(O)cc4CC[C@H]3[C@@H]1CC[C@@H]2O` [17β-estradiol], in assay [1], the “Immobility time in FST” value was “significantly shorter immobility time”. The “Immobility time in TST” value in assay [2] is “significantly shorter immobility time”. In addition, the “17β-estradiol (serum)” value in assay [3] turned out to be 24.81 ± 1.11 pg/mL. Moreover, in assay [4] (setting [7]), the “Uterine Volume” value was 2.305 ± 0.02 ** cm^3/kg and the “Uterine Weight” value is 3.055 ± 0.04 g/kg. For the same compound, in assay [4] (OVX mice, extract 250 and 500 mg/kg/day, E2 1 µg/kg/day, vs vehicle-treated OVX), the “Effect on uterus weight and volume” value is “statistically significant effects on uterus weight and volume”. Besides, in assay [5], the “Serum corticosterone level (effect on HPA-axis)” value is given as “decreasing the serum corticosterone level”. Moreover, the “CREB and BDNF mRNA expression levels” value in assay [6] was “reversible by 17β-estradiol treatment”.
